This is an account of results in US10722442B2, “Skin brightening composition comprising novel ginsenoside” (AMOREPACIFIC CORPORATION, priority 2018, dated 2020).

The target in assay [1] is Mushroom-derived tyrosinase. Put plainly: Inhibitory effect of tyrosinase activity. The class given is biochemical. As to conditions: L-tyrosine substrate, 20 minutes at 37° C., absorbance at 490 nm. As to the method:
In order to compare the skin brightening effects of ginsenosides isolated from the ginseng seed extract, the inhibitory effect of the tyrosinase activity was evaluated as follows. Mushroom-derived tyrosinase and tyrosine were obtained from Sigma Chemical. […] Tyrosinase activity was assessed by measuring the absorbance at 490 nm using a microplate reader (Bio-Rad 3550, Richmond, Calif., U.S.A.) after an enzyme reaction for 20 minutes at 37° C.

Another assay has as its system Mel-Ab cell line. Put plainly: Melanin production inhibition (Dooley's method). The class given is cell-based, C57BL/6. Conditions: Mel-Ab cells, after 5 days, absorbance at 400 nm.

Consider `OC[C@H]1O[C@@H](Oc2ccc(O)cc2)[C@H](O)[C@@H](O)[C@@H]1O` [Arbutin, arbutin], for which the “IC50 (ppm), inhibitory effect of tyrosinase activity” value (from here on “IC50 (ppm), inhibitory effect”) in assay [1] was 149 ppm.

Consider `CC(C)=CCC[C@](C)(O[C@@H]1O[C@H](CO)[C@@H](O)[C@H](O)[C@H]1O)[C@H]1CC[C@]2(C)[C@@H]1[C@H](O)C[C@@H]1[C@@]3(C)CC[C@H](O)C(C)(C)[C@@H]3[C@@H](O[C@@H]3O[C@H](CO)[C@@H](O)[C@H](O)[C@H]3O)C[C@]12C` [GS#01, ginsenoside Rg1], for which the “IC50 (ppm), concentration required to reduce melanin production in melanocytes by half” value in the assay with Mel-Ab cell line stood at 37 ppm. The “IC50 (ppm), inhibitory effect” value in assay [1] is reported as 23 ppm.

For `CC(C)=CCC[C@](C)(O)[C@H]1CC[C@]2(C)[C@@H]1[C@H](O)C[C@@H]1[C@@]3(C)CC[C@H](O)C(C)(C)[C@@H]3[C@@H](O[C@@H]3O[C@H](CO)[C@@H](O)[C@H](O)[C@H]3O[C@@H]3O[C@@H](C)[C@H](O)[C@@H](O)[C@H]3O)C[C@]12C` [GS#02, ginsenoside Rg2], in the assay on Mel-Ab cell line, the “IC50 (ppm), concentration required to reduce melanin production in melanocytes by half” value is 35 ppm. Further, the “IC50 (ppm), inhibitory effect” value in assay [1] came out at 30 ppm.

For `CC(C)=CCC[C@](C)(O[C@@H]1O[C@H](CO)[C@@H](O)[C@H](O)[C@H]1O)[C@H]1CC[C@]2(C)[C@@H]1[C@H](O)C[C@@H]1[C@@]3(C)CC[C@H](O)C(C)(C)[C@@H]3[C@@H](O[C@@H]3O[C@H](CO)[C@@H](O)[C@H](O)[C@H]3O[C@@H]3O[C@@H](C)[C@H](O)[C@@H](O)[C@H]3O)C[C@]12C` [GS#03, ginsenoside Re], the “IC50 (ppm), concentration required to reduce melanin production in melanocytes by half” value with Mel-Ab cell line came out at 39 ppm. The “IC50 (ppm), inhibitory effect” value in assay [1] is reported as 27 ppm.

As for `CC(C)=CCC[C@](C)(O[C@@H]1O[C@H](CO)[C@@H](O)[C@H](O)[C@H]1O)[C@H]1CC[C@]2(C)[C@@H]1[C@H](O)C[C@@H]1[C@@]3(C)CC[C@H](O[C@@H]4O[C@H](CO)[C@@H](O)[C@H](O)[C@H]4O[C@@H]4O[C@H](CO)[C@@H](O)[C@H](O)[C@H]4O)C(C)(C)[C@@H]3CC[C@]12C` [GS#04, ginsenoside Rd], the “IC50 (ppm), concentration required to reduce melanin production in melanocytes by half” value with Mel-Ab cell line was determined as 38 ppm. Moreover, in assay [1], the “IC50 (ppm), inhibitory effect” value worked out at 31 ppm.

For the compound `CC(C)=CCC[C@](C)(O[C@@H]1O[C@H](CO[C@@H]2O[C@H](CO)[C@@H](O)[C@H](O)[C@H]2O)[C@@H](O)[C@H](O)[C@H]1O)[C@H]1CC[C@]2(C)[C@@H]1[C@H](O)C[C@@H]1[C@@]3(C)CC[C@H](O[C@@H]4O[C@H](CO)[C@@H](O)[C@H](O)[C@H]4O[C@@H]4O[C@H](CO)[C@@H](O)[C@H](O)[C@H]4O)C(C)(C)[C@@H]3CC[C@]12C` [GS#05, ginsenoside Rb1], the “IC50 (ppm), concentration required to reduce melanin production in melanocytes by half” value with Mel-Ab cell line amounted to 57 ppm. In assay [1], the “IC50 (ppm), inhibitory effect” value worked out at 47 ppm.

As to `CC(C)=CCC[C@](C)(O[C@@H]1O[C@H](CO[C@@H]2OC[C@H](O)[C@H](O)[C@H]2O)[C@@H](O)[C@H](O)[C@H]1O)[C@H]1CC[C@]2(C)[C@@H]1[C@H](O)C[C@@H]1[C@@]3(C)CC[C@H](O[C@@H]4O[C@H](CO)[C@@H](O)[C@H](O)[C@H]4O[C@@H]4O[C@H](CO)[C@@H](O)[C@H](O)[C@H]4O)C(C)(C)[C@@H]3CC[C@]12C` [GS#06, ginsenoside Rb2], the “IC50 (ppm), concentration required to reduce melanin production in melanocytes by half” value with Mel-Ab cell line was 54 ppm. Besides, the “IC50 (ppm), inhibitory effect” value in assay [1] is recorded as 53 ppm.

For `O=c1cc(CO)occ1O` [Kojic acid, kojic acid], the “IC50 (ppm), concentration required to reduce melanin production in melanocytes by half” value in the assay with Mel-Ab cell line turned out to be 39 ppm.
